Results: patent publication US6914045B2, “Glycopeptide antibiotics” (Wyeth Holdings Corporation, priority 2001, dated 2005)
≈ marks a conversion by molar mass, not a printed value. Numbered stars: 1 amine (or outer) side, 2 acyl side, 3 side chain; on linkers, the order of the positions; unused ones are H or OH. Square brackets hold non-standard residues; d marks the D form. Peptide text beside a SMILES is read from it. * marks the point of attachment. ξ: configuration not given here. X1 = N=C1NCC(C(O)C(N[*:1])C(=O)[*:2])N1C1OC(CO)C(O)C(O)C1O; ξEnduracididine(βξ-OH,4'ξ) = N=C1NCC(C(O)C(N)C(=O)O)N1; X2 = OCC1OC(OC2C(CO)OC(*)C(O)C2O)C(O)C(O)C1O; Diphenylacetyl = O=C(C(c1ccccc1)c1ccccc1)*; ξPhe(βξ-Me) = CC(c1ccccc1)C(N)C(=O)O

What was measured:
Experiment in all cases: in vitro antibacterial evaluation, MIC by broth dilution
Assay type in all cases: cell-based
Staphylococcus sp. = test system: Staphylococcus sp.
Procedure: (§1) Methods for in vitro Antibacterial Evaluation (Table 1)
(§2) The minimum inhibitory concentration (MIC), the lowest concentration of the antibiotic which inhibits growth of the test organism, is determined by the broth dilution method using Muller-Hinton II […] (Baltimore Biological Laboratories) following the recommendations of the National Committee for Clinical Laboratory Standards [Methods for dilution antimicrobial susceptibility tests for bacteria that grow aerobically, approved standard M7-A2, National Committee for Clinical Laboratory Standards, Villanova, Pa.].
(§3) An inoculum level of 5×10^5 CFU/mL, and a range of antibiotic concentrations (64-0.06 μg/mL) is used. […] The test organisms include a spectrum of Gram-positive bacteria comprised of Staphylococcus sp., Streptococcus sp. and Enterococcus sp. These organisms include recent clinical isolates that are resistant to methicillin, penicillin and/or vancomycin.

Streptococcus sp. = conditions: broth dilution, 18 hours at 35° C.
Procedure: as §1, §2, §3

Enterococcus sp. = conditions: broth dilution, 18 hours at 35° C.
Procedure: as §1, §2, §3

Escherichia coli = conditions: 18 hours at 35° C.
Summary of the method: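 Broth dilution in Muller-Hinton II medium per NCCLS standard M7-A2, with an inoculum of 5×10^5 CFU/mL and antibiotic tested over 64-0.06 μg/mL. MIC was taken as the lowest concentration inhibiting visible growth.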

[1] = broth dilution, 18 hours at 35° C.
[2] = strain ATCC 29213; broth dilution, 18 hours at 35° C.
[3] = strain GC 1131; broth dilution, 18 hours at 35° C.
[4] = strain GC 4541; broth dilution, 18 hours at 35° C.
[5] = strain GC 4542; broth dilution, 18 hours at 35° C.
[6] = strain GC 4544; broth dilution, 18 hours at 35° C.
[7] = strain GC 4545; broth dilution, 18 hours at 35° C.

SMILES: CC(c1ccccc1)C1NC(=O)CNC(=O)C(COC(=O)C(c2ccccc2)c2ccccc2)NC(=O)C(C(O)C2CNC(=N)N2C2OC(CO)C(O)C(O)C2O)NC(=O)C(C(O)C2CNC(=N)N2)NC(=O)C(Cc2ccc(OC3OC(CO)C(OC4OC(CO)C(O)C(O)C4O)C(O)C3O)cc2)NC1=O (stereo not drawn) [Example 96a, Cyclo[glycyl-β-methylphenylalanyl-O-(4-O-hexopyranosylhexopyranosyl)tyrosyl-3-(2-iminoimidazolidin-4-yl)seryl-3-(3-hexopyranosyl-2-iminoimidazolidin-4-yl)seryl-O-(diphenylacetyl)-seryl]] (cyclo(G[ξPhe(βξ-Me)]Y(X2)[ξEnduracididine(βξ-OH,4'ξ)][X1]S(Diphenylacetyl)); configuration not given here)
- MIC Coagulase Negative Staphylococcus (GC 4547) (Staphylococcus sp.; [1]): 128 µg/mL (≈ 85.9 µM)
- MIC Coagulase Negative Staphylococcus (GC 4548) (Staphylococcus sp.; [1]): >128 µg/mL
- MIC Coagulase Negative Staphylococcus (GC 4549) (Staphylococcus sp.; [1]): 64 µg/mL (≈ 43 µM)
- MIC Coagulase Negative Staphylococcus (GC 4551) (Staphylococcus sp.; [1]): 128 µg/mL (≈ 85.9 µM)
- MIC Coagulase Negative Staphylococcus (ID-3941) (Staphylococcus sp.; [1]): 64 µg/mL (≈ 43 µM)
- MIC Staphylococcus aureus-SMITH (GC 4543) (Staphylococcus sp.; [1]): >128 µg/mL
- MIC Staphylococcus haemolyticus (GC 4546) (Staphylococcus sp.; [1]): 128 µg/mL (≈ 85.9 µM)
- MIC Staphylococcus haemolyticus (GC 4546) (Staphylococcus sp.; broth dilution, 18 hours at 35° C.; strain GC 4546): 128 µg/mL (≈ 85.9 µM)
- MIC Coagulase Negative Staphylococcus (GC 4547) (Staphylococcus sp.; broth dilution, 18 hours at 35° C.; strain GC 4547): 128 µg/mL (≈ 85.9 µM)
- MIC Coagulase Negative Staphylococcus (GC 4548) (Staphylococcus sp.; broth dilution, 18 hours at 35° C.; strain GC 4548): >128 µg/mL
- MIC Coagulase Negative Staphylococcus (GC 4549) (Staphylococcus sp.; broth dilution, 18 hours at 35° C.; strain GC 4549): 64 µg/mL (≈ 43 µM)
- MIC Coagulase Negative Staphylococcus (GC 4551) (Staphylococcus sp.; broth dilution, 18 hours at 35° C.; strain GC 4551): 128 µg/mL (≈ 85.9 µM)
- MIC Coagulase Negative Staphylococcus (ID-3941) (Staphylococcus sp.; broth dilution, 18 hours at 35° C.; strain ID-3941): 64 µg/mL (≈ 43 µM)
- MIC Staphylococcus aureus-SMITH (GC 4543) (Staphylococcus sp.; broth dilution, 18 hours at 35° C.; strain SMITH GC 4543): >128 µg/mL
- MIC Staphylococcus aureus (ATCC 29213) (Staphylococcus sp.; [2]): >128 µg/mL
- MIC Staphylococcus aureus (GC 1131) (Staphylococcus sp.; [3]): >128 µg/mL
- MIC Staphylococcus aureus (GC 4541) (Staphylococcus sp.; [4]): 128 µg/mL (≈ 85.9 µM)
- MIC Staphylococcus aureus (GC 4542) (Staphylococcus sp.; [5]): >128 µg/mL
- MIC Staphylococcus aureus (GC 4544) (Staphylococcus sp.; [6]): >128 µg/mL
- MIC Staphylococcus aureus (GC 4545) (Staphylococcus sp.; [7]): >128 µg/mL
- MIC Streptococcus agalactiae (GC 4564) (Streptococcus sp.; Streptococcus agalactiae (GC 4564)): 32 µg/mL (≈ 21.5 µM)
- MIC Streptococcus pneumoniae (GC 4565) (Streptococcus sp.; Streptococcus pneumoniae (GC 4565)): 16 µg/mL (≈ 10.7 µM)
- MIC Streptococcus pyogenes (ID-3187) (Streptococcus sp.; Streptococcus pyogenes (ID-3187)): 32 µg/mL (≈ 21.5 µM)
- MIC Streptococcus agalactiae (GC 4564) (Streptococcus sp.): 32 µg/mL (≈ 21.5 µM)
- MIC Streptococcus pneumoniae (GC 4565) (Streptococcus sp.): 16 µg/mL (≈ 10.7 µM)
- MIC Streptococcus pyogenes (ID-3187) (Streptococcus sp.): 32 µg/mL (≈ 21.5 µM)
- MIC Enterococcus avium (GC 4558) (Enterococcus sp.; Enterococcus avium (GC 4558)): >128 µg/mL
- MIC Enterococcus faecalis (ATCC 29212) (Enterococcus sp.; Enterococcus faecalis (ATCC 29212)): >128 µg/mL
- MIC Enterococcus faecalis (GC 2242) (Enterococcus sp.; Enterococcus faecalis (GC 2242)): >128 µg/mL
- MIC Enterococcus faecalis (GC 4552) (Enterococcus sp.; Enterococcus faecalis (GC 4552)): >128 µg/mL
- MIC Enterococcus faecalis (GC 4553) (Enterococcus sp.; Enterococcus faecalis (GC 4553)): >128 µg/mL
- MIC Enterococcus faecalis (GC 4554) (Enterococcus sp.; Enterococcus faecalis (GC 4554)): >128 µg/mL
- MIC Enterococcus faecium (GC 2243) (Enterococcus sp.; Enterococcus faecium (GC 2243)): 128 µg/mL (≈ 85.9 µM)
- MIC Enterococcus faecium (GC 4556) (Enterococcus sp.; Enterococcus faecium (GC 4556)): >128 µg/mL
- MIC Enterococcus faecium (GC 4557) (Enterococcus sp.; Enterococcus faecium (GC 4557)): 32 µg/mL (≈ 21.5 µM)
- MIC Enterococcus avium (GC 4558) (Enterococcus sp.): >128 µg/mL
- MIC Enterococcus faecalis (ATCC 29212) (Enterococcus sp.): >128 µg/mL
- MIC Enterococcus faecalis (GC 2242) (Enterococcus sp.): >128 µg/mL
- MIC Enterococcus faecalis (GC 4552) (Enterococcus sp.): >128 µg/mL
- MIC Enterococcus faecalis (GC 4553) (Enterococcus sp.): >128 µg/mL
- MIC Enterococcus faecalis (GC 4554) (Enterococcus sp.): >128 µg/mL
- MIC Enterococcus faecium (GC 2243) (Enterococcus sp.): 128 µg/mL (≈ 85.9 µM)
- MIC Enterococcus faecium (GC 4556) (Enterococcus sp.): >128 µg/mL
- MIC Enterococcus faecium (GC 4557) (Enterococcus sp.): 32 µg/mL (≈ 21.5 µM)
- MIC Escherichia coli (ATCC 25922) (Escherichia coli): >128 µg/mL

SMILES: CC(c1ccccc1)C1NC(=O)CNC(=O)C(CO)NC(=O)C(C(O)C2CNC(=N)N2C2OC(CO)C(O)C(O)C2O)NC(=O)C(C(O)C2CNC(=N)N2)NC(=O)C(Cc2ccc(O)c(NC(=S)Nc3cc(C(F)(F)F)cc(C(F)(F)F)c3)c2)NC1=O (stereo not drawn) [Example 24, Cyclo[glycyl-β-methylphenylalanyl-3-[[[3,5-bis(trifluoromethyl)phenyl]carbamothioyl]amino]-tyrosyl-3-(2-iminoimidazolidin-4-yl)seryl-3-(3-hexopyranosyl-2-iminoimidazolidin-4-y)-serylseryl]]
- MIC Staphylococcus aureus (ATCC 29213) (Staphylococcus sp.; [2]): >64 µg/mL
- MIC Staphylococcus aureus (GC 1131) (Staphylococcus sp.; [3]): >64 µg/mL
- MIC Staphylococcus aureus (GC 3051) (Staphylococcus sp.; strain GC 3051; broth dilution, 18 hours at 35° C.): >64 µg/mL
- MIC Staphylococcus aureus (GC 3053) (Staphylococcus sp.; strain GC 3053; broth dilution, 18 hours at 35° C.): >64 µg/mL
- MIC Staphylococcus aureus (GC 4541) (Staphylococcus sp.; [4]): >64 µg/mL
- MIC Staphylococcus aureus (GC 4542) (Staphylococcus sp.; [5]): >64 µg/mL
- MIC Staphylococcus aureus-SMITH (GC 4543) (Staphylococcus sp.; strain GC 4543; broth dilution, 18 hours at 35° C.): >64 µg/mL
- MIC Staphylococcus aureus (GC 4544) (Staphylococcus sp.; [6]): >64 µg/mL
- MIC Staphylococcus aureus (GC 4545) (Staphylococcus sp.; [7]): >64 µg/mL
- MIC Staphylococcus haemolyticus (GC 4546) (Staphylococcus sp.; strain GC 4546; broth dilution, 18 hours at 35° C.): 64 µg/mL (≈ 50.9 µM)
- MIC Coagulase Negative Staphylococcus (GC 4547) (Staphylococcus sp.; strain GC 4547; broth dilution, 18 hours at 35° C.): 64 µg/mL (≈ 50.9 µM)
- MIC Coagulase Negative Staphylococcus (GC 4548) (Staphylococcus sp.; strain GC 4548; broth dilution, 18 hours at 35° C.): 64 µg/mL (≈ 50.9 µM)
- MIC Coagulase Negative Staphylococcus (GC 4549) (Staphylococcus sp.; strain GC 4549; broth dilution, 18 hours at 35° C.): >64 µg/mL
- MIC Coagulase Negative Staphylococcus (GC 4551) (Staphylococcus sp.; strain GC 4551; broth dilution, 18 hours at 35° C.): >64 µg/mL
- MIC Coagulase Negative Staphylococcus (GC 6257) (Staphylococcus sp.; strain GC 6257; broth dilution, 18 hours at 35° C.): 32 µg/mL (≈ 25.5 µM)
- MIC Streptococcus pneumoniae (ATCC 6301) (Streptococcus sp.; strain ATCC 6301): >64 µg/mL
- MIC Streptococcus pneumoniae (GC 1894) (Streptococcus sp.; strain GC 1894): 64 µg/mL (≈ 50.9 µM)
- MIC Streptococcus pyogenes (GC 4563) (Streptococcus sp.; strain GC 4563): 64 µg/mL (≈ 50.9 µM)
- MIC Streptococcus agalactiae (GC 4564) (Streptococcus sp.; strain GC 4564): >64 µg/mL
- MIC Streptococcus pneumoniae (GC 4565) (Streptococcus sp.; strain GC 4565): >64 µg/mL
- MIC Enterococcus faecalis (ATCC 29212) (Enterococcus sp.; strain ATCC 29212): 64 µg/mL (≈ 50.9 µM)
- MIC Enterococcus faecalis (GC 2242) (Enterococcus sp.; strain GC 2242): 64 µg/mL (≈ 50.9 µM)
- MIC Enterococcus faecium (GC 2243) (Enterococcus sp.; strain GC 2243): 64 µg/mL (≈ 50.9 µM)
- MIC Enterococcus faecalis (GC 2691) (Enterococcus sp.; strain GC 2691): >64 µg/mL
- MIC Enterococcus faecalis (GC 3059) (Enterococcus sp.; strain GC 3059): >64 µg/mL
- MIC Enterococcus faecalis (GC 4552) (Enterococcus sp.; strain GC 4552): >64 µg/mL
- MIC Enterococcus faecalis (GC 4553) (Enterococcus sp.; strain GC 4553): 32 µg/mL (≈ 25.5 µM)
- MIC Enterococcus faecalis (GC 4554) (Enterococcus sp.; strain GC 4554): >64 µg/mL
- MIC Enterococcus faecium (GC 4556) (Enterococcus sp.; strain GC 4556): 64 µg/mL (≈ 50.9 µM)
- MIC Enterococcus faecium (GC 4557) (Enterococcus sp.; strain GC 4557): 32 µg/mL (≈ 25.5 µM)
- MIC Enterococcus avium (GC 4558) (Enterococcus sp.; strain GC 4558): 64 µg/mL (≈ 50.9 µM)
- MIC Enterococcus faecalis (GC 6189) (Enterococcus sp.; strain GC 6189): >64 µg/mL
- MIC Escherichia coli (ATCC 25922) (Escherichia coli; strain ATCC 25922, broth dilution): >64 µg/mL
- MIC Escherichia coli (GC 4559) (Escherichia coli; strain GC 4559, broth dilution): >64 µg/mL
- MIC Escherichia coli (GC 4560) (Escherichia coli; strain GC 4560, broth dilution): 32 µg/mL (≈ 25.5 µM)
